The target of assay [1] is 5-hydroxytryptamine receptor 7 (Rattus norvegicus, UniProt P32305).
Assay [2] has as its target T1, 5-hydroxytryptamine receptor 1A (Rattus norvegicus, UniProt P19327).
T1 sequence (P19327 whole entry): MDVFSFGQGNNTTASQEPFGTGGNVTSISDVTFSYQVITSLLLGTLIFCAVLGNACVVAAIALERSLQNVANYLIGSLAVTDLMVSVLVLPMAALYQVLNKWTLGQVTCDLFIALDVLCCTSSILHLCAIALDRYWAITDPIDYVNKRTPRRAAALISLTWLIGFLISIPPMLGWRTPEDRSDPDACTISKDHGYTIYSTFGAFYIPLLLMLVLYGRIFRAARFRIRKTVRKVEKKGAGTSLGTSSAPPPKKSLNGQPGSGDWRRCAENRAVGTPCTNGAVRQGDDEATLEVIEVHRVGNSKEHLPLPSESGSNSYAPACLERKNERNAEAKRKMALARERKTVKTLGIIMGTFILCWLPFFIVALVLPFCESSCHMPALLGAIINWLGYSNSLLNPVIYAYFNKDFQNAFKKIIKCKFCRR

5-hydroxytryptamine receptor 7, sequence (P32305 whole entry): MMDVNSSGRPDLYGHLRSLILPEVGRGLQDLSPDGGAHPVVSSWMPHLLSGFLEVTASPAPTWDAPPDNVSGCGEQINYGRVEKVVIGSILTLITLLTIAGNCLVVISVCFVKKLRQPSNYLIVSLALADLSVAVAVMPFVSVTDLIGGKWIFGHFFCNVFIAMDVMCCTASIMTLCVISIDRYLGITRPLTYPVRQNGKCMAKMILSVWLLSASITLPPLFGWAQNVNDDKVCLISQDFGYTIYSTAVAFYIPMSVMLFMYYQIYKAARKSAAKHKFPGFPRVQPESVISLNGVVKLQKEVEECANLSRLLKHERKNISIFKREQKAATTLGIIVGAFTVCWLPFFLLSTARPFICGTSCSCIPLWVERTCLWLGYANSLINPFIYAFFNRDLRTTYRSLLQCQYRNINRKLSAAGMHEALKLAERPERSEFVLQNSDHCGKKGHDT

One may read the Ki as the dissociation constant of the complex between target and ligand, obtained from inhibition or displacement. High values mean weaker binding, low ones tighter binding. In assay [1], `CCCN(CCC)C1CCc2cccc(O)c2C1` (stereo not given) displayed a Ki of 53 nM. The compound `Cc1nc2sccn2c(=O)c1CCN1CCC(=C(c2ccc(F)cc2)c2ccc(F)cc2)CC1` came in with a Ki in assay [1] of 33 nM. Regarding `CC[C@@H](CO)NC(=O)[C@@H]1C=C2c3cccc4c3c(cn4C)C[C@H]2N(C)C1`, the Ki was 545 nM in assay [2] and 17 nM in assay [1].

As for `NCCc1ccc(O)c(O)c1`, the Ki in assay [2] and in assay [1] was 545 nM each time. Compound `COc1ccccc1N1CCN(CCCCN2C(=O)c3ccccc3C2=O)CC1` [2-{4-[4-(2-Methoxy-phenyl)-piperazin-1-yl]-butyl}-isoindole-1,3-dione] came in with a Ki in assay [1] of 79.1 nM. `CN1C[C@H](C(=O)N[C@]2(C)O[C@@]3(O)[C@@H]4CCCN4C(=O)[C@H](Cc4ccccc4)N3C2=O)C=C2c3cccc4[nH]cc(c34)C[C@H]21` [12'-hydroxy-2'-methyl-5'alpha-(phenylmethyl)ergotaman-3',6',18-trione]: the figures for the Ki in assay [2] and in assay [1] were 3 nM and 17 nM, respectively. In the case of `O=C1CC2(CCCC2)CC(=O)N1CCCCN1CCN(c2ncccn2)CC1` [BUSPAR], affinity in assay [1] was put at a Ki of 375 nM. Take `CC(C)NCC(O)COc1cccc2[nH]ccc12` (stereo not given) [LB-46]: the Ki is 31 nM in assay [2] and 545 nM in assay [1]. On to `CN1C[C@@H](NS(=O)(=O)N(C)C)C[C@@H]2c3cccc4c3c(cn4C)C[C@H]21` [MESULERGINE], for which the Ki was determined as 545 nM in assay [2] and 9.3 nM in assay [1]. Regarding `CN1C[C@H](CNC(=O)OCc2ccccc2)C[C@@H]2c3cccc4c3c(cn4C)C[C@H]21` [METERGOLINE], the inhibition constant Ki in assay [2] was found to be 273 nM; in assay [1] it was 16 nM. Regarding `CNS(=O)(=O)Cc1ccc2[nH]cc(CCN(C)C)c2c1` [Sumax], the Ki in assay [1] turned out to be 545 nM. In assay [1], `COc1cc(N)c(Cl)cc1C(=O)NC1CN2CCC1CC2` (stereo not given) [ZACOPRIDE,R] yielded an inhibitory constant (Ki) of 545 nM. For `NCCc1c[nH]c2ccc(C(N)=O)cc12` [[3H]-5-carboxamidotryptamine], the inhibition constant Ki in assay [1] stood at 0.45 nM. As to `CSc1ccc2c(c1)C(N1CCN(C)CC1)Cc1ccccc1S2` (stereo not given) [methanesulfonic acid;1-methyl-4-(3-methylsulfanyl-5,6-dihydrobenzo[b][1]benzothiepin-5-yl)piperazine], affinity in assay [2] was put at a Ki of 8.7 nM.

Source of the values: BindingDB's records for doi:10.1016/0896-6273(93)90149-l (The Scripps Research Institute, 1993).
